Measurements taken from US11014902B2, “MYC G-quadruplex stabilizing small molecules and their use” (The United States of America, as represented by the …, priority 2015, dated 2021).

Legend:
Assay in all cases: NCI-60 cell growth (SRB)
Format in all cases: cell-based
A549/ATCC = conditions: Non-Small Cell Lung Cancer, 10 μM, 48 hours
Method: (§1) This example illustrates that Compounds 1 and 23 can be used in inhibit the growth of c-Myc expressing cancer cell lines in vitro. The NCI-60 panel of cancer cell lines (see Shoemaker, Nat. Rev. Cancer, 6, 813-823, 2006, and dtp.cancer.gov/discovery_development/nci-60/) was assayed for cell growth in the presence of 10 μM Compound 1 or Compound 23 for 48 hours. At 48 hours, the assay was terminated by fixation with TCA and determination of relative cell counts by addition of Sulforhodamine B (SRB, see Alley et al., Cancer Research, 48: 589-601, 1988.). Growth percent was determined by comparison of SRB reading of a duplicate plate of cells taken at the time of compound addition to the SRB reading at the termination of the treatment. The following table provides a summary of the percent of growth of each cell line in the panel compared to control (no treatment), as well as the mean delta and range of percent growth compared to control across the panel of cell lines for each treatment condition.

ACHN = conditions: Renal Cancer, 10 μM, 48 hours
Method: as §1

BT-549 = conditions: BT-549, Breast Cancer; 10 μM, 48 hours
Method: as §1

CCRF-CEM = conditions: Leukemia, 10 μM, 48 hours
Method: as §1

COLO 205 = conditions: COLO 205, Colon Cancer; 10 μM, 48 hours
Method: as §1

DU-145 = conditions: DU-145, Prostate Cancer; 10 μM, 48 hours
Method: as §1

EKVX = conditions: Non-Small Cell Lung Cancer, 10 μM, 48 hours
Method: as §1

HCT-116 = conditions: HCT-116, Colon Cancer; 10 μM, 48 hours
Method: as §1

HL-60(TB) = conditions: Leukemia, 10 μM, 48 hours
Method: as §1

HOP-62 = conditions: HOP-62, Non-Small Cell Lung Cancer; 10 μM, 48 hours
Method: as §1

HOP-92 = conditions: HOP-92, Non-Small Cell Lung Cancer; 10 μM, 48 hours
Method: as §1

HS 578T = conditions: Breast Cancer, 10 μM, 48 hours
Method: as §1

LOX IMVI = conditions: Melanoma, 10 μM, 48 hours
Method: as §1

M14 = conditions: M14, Melanoma; 10 μM, 48 hours
Method: as §1

MALME-3M = conditions: Melanoma, 10 μM, 48 hours
Method: as §1

MDA-MB-231/ATCC = conditions: Breast Cancer, 10 μM, 48 hours
Method: as §1

MDA-MB-435 = conditions: MDA-MB-435, Melanoma; 10 μM, 48 hours
Method: as §1

MDA-MB-468 = conditions: MDA-MB-468, Breast Cancer; 10 μM, 48 hours
Method: as §1

NCI-H226 = conditions: NCI-H226, Non-Small Cell Lung Cancer; 10 μM, 48 hours
Method: as §1

NCI-H23 = conditions: NCI-H23, Non-Small Cell Lung Cancer; 10 μM, 48 hours
Method: as §1

NCI-H522 = conditions: NCI-H522, Non-Small Cell Lung Cancer; 10 μM, 48 hours
Method: as §1

OVCAR-3 = conditions: OVCAR-3, Ovarian Cancer; 10 μM, 48 hours
Method: as §1

OVCAR-8 = conditions: OVCAR-8, Ovarian Cancer; 10 μM, 48 hours
Method: as §1

RPMI-8226 = conditions: RPMI-8226, Leukemia; 10 μM, 48 hours
Method: as §1

RXF 393 = conditions: RXF 393, Renal Cancer; 10 μM, 48 hours
Method: as §1

SF-268 = conditions: SF-268, CNS Cancer; 10 μM, 48 hours
Method: as §1

SF-295 = conditions: SF-295, CNS Cancer; 10 μM, 48 hours
Method: as §1

SF-539 = conditions: SF-539, CNS Cancer; 10 μM, 48 hours
Method: as §1

SK-MEL-5 = conditions: SK-MEL-5, Melanoma; 10 μM, 48 hours
Method: as §1

SNB-19 = conditions: SNB-19, CNS Cancer; 10 μM, 48 hours
Method: as §1

SR = conditions: Leukemia, 10 μM, 48 hours
Method: as §1

SW-620 = conditions: SW-620, Colon Cancer; 10 μM, 48 hours
Method: as §1

T-47D = conditions: Breast Cancer, 10 μM, 48 hours
Method: as §1

TK-10 = conditions: TK-10, Renal Cancer; 10 μM, 48 hours
Method: as §1

U251 = conditions: U251, CNS Cancer; 10 μM, 48 hours
Method: as §1

UACC-257 = conditions: UACC-257, Melanoma; 10 μM, 48 hours
Method: as §1

## Cc1ccc(NC(=O)c2c(C)oc3ccc(O)c(CN4CCCCCC4)c23)cc1 [Compound 1]
A549/ATCC
  Growth Percent: 85.87%
ACHN
  Growth Percent: 93.94%
BT-549
  Growth Percent: 92.88%
CCRF-CEM
  Growth Percent: 87.67%
COLO 205
  Growth Percent: 104.20%
DU-145
  Growth Percent: 103.26%
EKVX
  Growth Percent: 83.79%
HCT-116
  Growth Percent: 64.67%
HL-60(TB)
  Growth Percent: 92.74%
HOP-62
  Growth Percent: 79.76%
HOP-92
  Growth Percent: 55.89%
HS 578T
  Growth Percent: 88.40%
LOX IMVI
  Growth Percent: 88.87%
M14
  Growth Percent: 85.90%
MALME-3M
  Growth Percent: 107.60%
MDA-MB-231/ATCC
  Growth Percent: 79.39%
MDA-MB-435
  Growth Percent: 95.94%
MDA-MB-468
  Growth Percent: 73.62%
NCI-H226
  Growth Percent: 85.66%
NCI-H23
  Growth Percent: 90.23%
NCI-H522
  Growth Percent: 90.68%
OVCAR-3
  Growth Percent: 101.03%
OVCAR-8
  Growth Percent: 89.96%
RPMI-8226
  Growth Percent: 91.38%
RXF 393
  Growth Percent: 81.36%
SF-268
  Growth Percent: 100.73%
SF-295
  Growth Percent: 85.34%
SF-539
  Growth Percent: 93.10%
SK-MEL-5
  Growth Percent: 86.08%
SNB-19
  Growth Percent: 84.35%
SR
  Growth Percent: 83.12%
SW-620
  Growth Percent: 85.97%
T-47D
  Growth Percent: 92.74%
TK-10
  Growth Percent: 92.66%
U251
  Growth Percent: 88.66%
UACC-257
  Growth Percent: 112.11%

## Cc1oc2ccc(O)c(CN3CCCCCC3)c2c1C(=O)Nc1ccc(C(F)(F)F)cc1 [Compound 23]
A549/ATCC
  Growth Percent: 61.22%
ACHN
  Growth Percent: 68.48%
BT-549
  Growth Percent: 78.51%
CCRF-CEM
  Growth Percent: 65.23%
COLO 205
  Growth Percent: 48.73%
DU-145
  Growth Percent: 64.80%
EKVX
  Growth Percent: 64.06%
HCT-116
  Growth Percent: 32.68%
HL-60(TB)
  Growth Percent: 83.01%
HOP-62
  Growth Percent: 70.39%
HOP-92
  Growth Percent: 34.88%
HS 578T
  Growth Percent: 65.50%
LOX IMVI
  Growth Percent: 39.15%
M14
  Growth Percent: 58.14%
MALME-3M
  Growth Percent: 49.92%
MDA-MB-231/ATCC
  Growth Percent: 48.96%
MDA-MB-435
  Growth Percent: 58.22%
MDA-MB-468
  Growth Percent: 5.74%
NCI-H226
  Growth Percent: 72.45%
NCI-H23
  Growth Percent: 69.93%
NCI-H522
  Growth Percent: 72.52%
OVCAR-3
  Growth Percent: 62.02%
OVCAR-8
  Growth Percent: 66.34%
RPMI-8226
  Growth Percent: 75.08%
RXF 393
  Growth Percent: 50.40%
SF-268
  Growth Percent: 75.44%
SF-295
  Growth Percent: 48.84%
SF-539
  Growth Percent: 61.23%
SK-MEL-5
  Growth Percent: 69.97%
SNB-19
  Growth Percent: 69.94%
SR
  Growth Percent: −8.44%
SW-620
  Growth Percent: 67.44%
T-47D
  Growth Percent: 73.98%
TK-10
  Growth Percent: 81.06%
U251
  Growth Percent: 55.07%
UACC-257
  Growth Percent: 82.00%
